Assay results reported in the NIST ThermoML archive (doi:10.1021/acs.jced.6b00688).

Test: xn = mol fraction of the nth substance listed
Settings: 100 kPa, Liquid; for viscosity: Falling or rolling sphere viscometry; for mass density: Vibrating tube method

OCC1CCCCC1 [cyclohexylmethanol] + CC1CCCCC1
Settings	mass density [kg/m3]	viscosity [mPa·s]
293.15 K, x2 = 0.0998	914.04	22.56
293.15 K, x2 = 0.1996	898.07	12.82
293.15 K, x2 = 0.2999	881.82	7.902
293.15 K, x2 = 0.3998	865.56	4.953
293.15 K, x2 = 0.5004	848.97	3.225
293.15 K, x2 = 0.6007	832.61	2.164
293.15 K, x2 = 0.6997	816.64	1.555
293.15 K, x2 = 0.7984	800.82	1.159
293.15 K, x2 = 0.9012	784.55	0.891
298.15 K, x2 = 0.0998	910.42	17.67
298.15 K, x2 = 0.1996	894.34	10.28
298.15 K, x2 = 0.2999	877.99	6.5
298.15 K, x2 = 0.3998	861.58	4.176
298.15 K, x2 = 0.5004	844.91	2.832
298.15 K, x2 = 0.6007	828.51	1.92
298.15 K, x2 = 0.6997	812.48	1.407
298.15 K, x2 = 0.7984	796.58	1.065
298.15 K, x2 = 0.9012	780.24	0.817
303.15 K, x2 = 0.0998	906.77	14.09
303.15 K, x2 = 0.1996	890.57	8.368
303.15 K, x2 = 0.2999	874.13	5.421
303.15 K, x2 = 0.3998	857.62	3.567
303.15 K, x2 = 0.5004	840.88	2.446
303.15 K, x2 = 0.6007	824.38	1.715
303.15 K, x2 = 0.6997	808.29	1.279
303.15 K, x2 = 0.7984	792.32	0.98
303.15 K, x2 = 0.9012	775.91	0.769
308.15 K, x2 = 0.0998	903.08	11.37
308.15 K, x2 = 0.1996	886.77	6.888
308.15 K, x2 = 0.2999	870.24	4.567
308.15 K, x2 = 0.3998	853.63	3.075
308.15 K, x2 = 0.5004	836.92	2.155
308.15 K, x2 = 0.6007	820.24	1.542
308.15 K, x2 = 0.6997	804.07	1.167
308.15 K, x2 = 0.7984	788.03	0.905
308.15 K, x2 = 0.9012	771.56	0.718
313.15 K, x2 = 0.0998	899.36	9.257
313.15 K, x2 = 0.1996	882.93	5.729
313.15 K, x2 = 0.2999	866.31	3.884
313.15 K, x2 = 0.3998	849.61	2.672
313.15 K, x2 = 0.5004	832.82	1.912
313.15 K, x2 = 0.6007	816.06	1.393
313.15 K, x2 = 0.6997	799.82	1.069
313.15 K, x2 = 0.7984	783.71	0.839
313.15 K, x2 = 0.9012	767.17	0.672
318.15 K, x2 = 0.0998	895.6	7.638
318.15 K, x2 = 0.1996	879.05	4.813
318.15 K, x2 = 0.2999	862.35	3.332
318.15 K, x2 = 0.3998	845.56	2.34
318.15 K, x2 = 0.5004	828.69	1.706
318.15 K, x2 = 0.6007	811.86	1.264
318.15 K, x2 = 0.6997	795.54	0.983
318.15 K, x2 = 0.7984	779.36	0.779
318.15 K, x2 = 0.9012	762.76	0.631
323.15 K, x2 = 0.0998	891.81	6.35
323.15 K, x2 = 0.1996	875.15	4.082
323.15 K, x2 = 0.2999	858.35	2.882
323.15 K, x2 = 0.3998	841.47	2.064
323.15 K, x2 = 0.5004	824.52	1.539
323.15 K, x2 = 0.6007	807.62	1.152
323.15 K, x2 = 0.6997	791.23	0.907
323.15 K, x2 = 0.7984	774.99	0.726
323.15 K, x2 = 0.9012	758.33	0.594
328.15 K, x2 = 0.0998	887.97	5.322
328.15 K, x2 = 0.1996	871.24	3.491
328.15 K, x2 = 0.2999	854.31	2.512
328.15 K, x2 = 0.3998	837.35	1.831
328.15 K, x2 = 0.5004	820.32	1.379
328.15 K, x2 = 0.6007	803.35	1.054
328.15 K, x2 = 0.6997	786.89	0.839
328.15 K, x2 = 0.7984	770.58	0.679
328.15 K, x2 = 0.9012	753.86	0.561
333.15 K, x2 = 0.0998	884.09	4.526
333.15 K, x2 = 0.1996	867.26	3.011
333.15 K, x2 = 0.2999	850.23	2.204
333.15 K, x2 = 0.3998	833.14	1.634
333.15 K, x2 = 0.5004	816.09	1.25
333.15 K, x2 = 0.6007	799.05	0.967
333.15 K, x2 = 0.6997	782.43	0.778
333.15 K, x2 = 0.7984	766.13	0.637
333.15 K, x2 = 0.9012	749.37	0.531

CCCCCCCO [heptan-1-ol] + CC1CCCCC1
Settings	mass density [kg/m3]	viscosity [mPa·s]
293.15 K, x2 = 0.1004	817.38	5.541
293.15 K, x2 = 0.1991	812.34	4.404
293.15 K, x2 = 0.3134	806.43	3.336
293.15 K, x2 = 0.399	801.91	2.649
293.15 K, x2 = 0.4994	796.51	2.055
293.15 K, x2 = 0.5997	790.98	1.603
293.15 K, x2 = 0.6987	785.57	1.275
293.15 K, x2 = 0.7995	779.94	1.03
293.15 K, x2 = 0.8995	774.56	0.845
298.15 K, x2 = 0.1004	813.81	4.649
298.15 K, x2 = 0.1991	808.71	3.773
298.15 K, x2 = 0.3134	802.7	2.924
298.15 K, x2 = 0.399	798.1	2.325
298.15 K, x2 = 0.4994	792.62	1.83
298.15 K, x2 = 0.5997	787	1.448
298.15 K, x2 = 0.6987	781.49	1.165
298.15 K, x2 = 0.7995	775.77	0.951
298.15 K, x2 = 0.8995	770.3	0.79
303.15 K, x2 = 0.1004	810.21	4.037
303.15 K, x2 = 0.1991	805.04	3.261
303.15 K, x2 = 0.3134	798.92	2.548
303.15 K, x2 = 0.399	794.25	2.055
303.15 K, x2 = 0.4994	788.68	1.64
303.15 K, x2 = 0.5997	782.98	1.314
303.15 K, x2 = 0.6987	777.38	1.068
303.15 K, x2 = 0.7995	771.56	0.879
303.15 K, x2 = 0.8995	766	0.736
308.15 K, x2 = 0.1004	806.59	3.484
308.15 K, x2 = 0.1991	801.33	2.838
308.15 K, x2 = 0.3134	795.12	2.235
308.15 K, x2 = 0.399	790.37	1.827
308.15 K, x2 = 0.4994	784.72	1.476
308.15 K, x2 = 0.5997	778.93	1.197
308.15 K, x2 = 0.6987	773.24	0.983
308.15 K, x2 = 0.7995	767.32	0.816
308.15 K, x2 = 0.8995	761.67	0.702
313.15 K, x2 = 0.1004	802.94	3.027
313.15 K, x2 = 0.1991	797.6	2.485
313.15 K, x2 = 0.3134	791.3	1.932
313.15 K, x2 = 0.399	786.47	1.633
313.15 K, x2 = 0.4994	780.73	1.335
313.15 K, x2 = 0.5997	774.85	1.094
313.15 K, x2 = 0.6987	769.07	0.907
313.15 K, x2 = 0.7995	763.06	0.759
313.15 K, x2 = 0.8995	757.31	0.645
318.15 K, x2 = 0.1004	799.26	2.643
318.15 K, x2 = 0.1991	793.83	2.188
318.15 K, x2 = 0.3134	787.42	1.749
318.15 K, x2 = 0.399	782.53	1.468
318.15 K, x2 = 0.4994	776.7	1.213
318.15 K, x2 = 0.5997	770.74	1.004
318.15 K, x2 = 0.6987	764.87	0.84
318.15 K, x2 = 0.7995	758.76	0.708
318.15 K, x2 = 0.8995	752.93	0.607
323.15 K, x2 = 0.1004	795.54	2.322
323.15 K, x2 = 0.1991	790.03	1.937
323.15 K, x2 = 0.3134	783.52	1.559
323.15 K, x2 = 0.399	778.55	1.324
323.15 K, x2 = 0.4994	772.64	1.106
323.15 K, x2 = 0.5997	766.59	0.924
323.15 K, x2 = 0.6987	760.64	0.779
323.15 K, x2 = 0.7995	754.43	0.662
323.15 K, x2 = 0.8995	748.52	0.572
328.15 K, x2 = 0.1004	791.78	2.05
328.15 K, x2 = 0.1991	786.18	1.723
328.15 K, x2 = 0.3134	779.58	1.396
328.15 K, x2 = 0.399	774.54	1.2
328.15 K, x2 = 0.4994	768.55	1.011
328.15 K, x2 = 0.5997	762.41	0.853
328.15 K, x2 = 0.6987	756.36	0.725
328.15 K, x2 = 0.7995	750.06	0.621
328.15 K, x2 = 0.8995	744.07	0.54
333.15 K, x2 = 0.1004	787.98	1.82
333.15 K, x2 = 0.1991	782.3	1.541
333.15 K, x2 = 0.3134	775.6	1.254
333.15 K, x2 = 0.399	770.5	1.092
333.15 K, x2 = 0.4994	764.42	0.928
333.15 K, x2 = 0.5997	758.17	0.789
333.15 K, x2 = 0.6987	752.05	0.676
333.15 K, x2 = 0.7995	745.66	0.584
333.15 K, x2 = 0.8995	739.59	0.512
